In experiment [1] the target is T1, Tyrosine-protein phosphatase non-receptor type 11 (Homo sapiens, UniProt Q06124).
T1 sequence (Q06124 whole entry): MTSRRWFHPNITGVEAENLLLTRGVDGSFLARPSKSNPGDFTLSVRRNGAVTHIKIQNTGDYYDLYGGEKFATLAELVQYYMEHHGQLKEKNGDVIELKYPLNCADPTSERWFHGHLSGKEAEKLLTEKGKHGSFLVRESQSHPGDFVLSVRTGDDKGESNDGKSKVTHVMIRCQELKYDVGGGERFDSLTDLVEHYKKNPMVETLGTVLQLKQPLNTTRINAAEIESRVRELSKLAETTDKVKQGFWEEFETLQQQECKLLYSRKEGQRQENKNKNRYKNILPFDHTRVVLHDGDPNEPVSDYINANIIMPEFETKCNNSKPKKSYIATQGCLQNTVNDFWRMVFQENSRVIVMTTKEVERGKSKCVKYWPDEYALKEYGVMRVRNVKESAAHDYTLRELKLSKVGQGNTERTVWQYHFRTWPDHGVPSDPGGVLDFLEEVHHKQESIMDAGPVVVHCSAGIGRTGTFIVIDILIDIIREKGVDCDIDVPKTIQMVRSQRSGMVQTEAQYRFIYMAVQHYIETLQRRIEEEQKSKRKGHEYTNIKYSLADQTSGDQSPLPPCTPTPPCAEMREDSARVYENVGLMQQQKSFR
As to the kind of experiment: Allosteric inhibition of N-terminal His-tagged human recombinant SHP2 extracted from Escherichia coli using DiFMUP as substrate preincubated with compound for 60 mins followed by substrate addition and measured after 30 mins by fluorescence based microplate reader analysis.

In experiment [2] the target is T2, Tyrosine-protein phosphatase non-receptor type 11 (Homo sapiens) (UniProt Q06124).
T2 sequence (whole entry): T1 sequence (Q06124 whole entry)
The experiment in a line: Allosteric inhibition of N-terminal His-tagged human recombinant SHP2 extracted from Escherichia coli using DiFMUP as substrate at 10 uM preincubated with compound for 60 mins followed by substrate addition and measured after 30 mins by fluorescence based microplate reader analysis relative to control. To be noted: time 90.0 min.

Experiment [3] has as its system MV4-11. The experiment in a line: Antiproliferative activity against human MV4-11 cells assessed as inhibition of cell proliferation incubated for 72 hrs by CCK-8 assay. It is filed as functional, cell-based. As to conditions: Homo sapiens, MV4-11, 72 h. Background: Tetrazolium dyes change colour on reduction, which living cells bring about.

Drawing on ChEMBL document CHEMBL5614460, “Discovery of novel substituted pyridine carboxamide derivatives as potent allosteric SHP2 inhibitors” (Eur J Med Chem, 2024), this text covers IC50 and inhibition for 42 compounds.

What is called IC50 is the midpoint of a concentration-inhibition curve. Usually inhibition stands for the share of the control response that was lost under treatment.

For `CC1(N)CCN(c2cnc(Sc3cccc(NC(=O)c4cccs4)c3Cl)cn2)CC1`, the IC50 in experiment [1] was 0.119 µM.
On to `CC1(N)CCN(c2cnc(Sc3cccc(NC(=O)c4cnccc4Cl)c3Cl)cn2)CC1`, for which the IC50 in experiment [1] came to 0.128 µM.
Still for that read-out and setting: the value for `CC1(N)CCN(c2cnc(Sc3cccc(NC(=O)c4ncccc4F)c3Cl)cn2)CC1` was 0.0323 µM; that for `CC1(N)CCN(c2cnc(Sc3cccc(NC(=O)C4CCCCC4)c3Cl)cn2)CC1` was 0.174 µM.
Consider `CC1(N)CCN(c2cnc(Sc3cccc(NC(=O)c4cnccn4)c3Cl)cn2)CC1`, for which, in experiment [1], the IC50 amounted to 0.077 µM.
`Nc1nc(N2CCN(C(=O)C3(N)CCCC3)CC2)cnc1Sc1ccnc(N)c1Cl`: the IC50 in experiment [1] amounted to 0.53 µM. In addition, in experiment [2], the inhibition worked out at 95.2%.
For the compound `CC1(N)CCN(c2cnc(Sc3cccc(NC(=O)c4ccc(Cl)cn4)c3Cl)cn2)CC1`, the IC50 in experiment [1] was found to be 0.218 µM.
As for `Cc1cccnc1C(=O)Nc1cccc(Sc2cnc(N3CCC(C)(N)CC3)cn2)c1Cl`, in experiment [1], the IC50 was 0.0891 µM.
Take `N[C@@H]1c2ccccc2CC12CCN(c1cnc(Sc3cccc(NC(=O)c4ncccc4O)c3Cl)cn1)CC2`: the IC50 in experiment [1] worked out at 0.0006 µM.
With `CC1(N)CCN(c2cnc(Sc3cccc(NC(=O)c4cccc5ccccc45)c3Cl)cn2)CC1`, in experiment [1], the IC50 is 0.332 µM.
`C[C@@H]1OCC2(CCN(c3cnc(Sc4cccc(NC(=O)c5cnccc5O)c4Cl)cn3)CC2)[C@@H]1N`: the results for the IC50 in experiment [1] and in experiment [3] were 0.00017 µM and 0.0166 µM, respectively.
On to `CC1(N)CCN(c2cnc(Sc3cccc(NC(=O)c4ncccn4)c3Cl)cn2)CC1`, for which, in experiment [1], the IC50 is 0.0301 µM.
Consider `CC1(N)CCN(c2cnc(Sc3ccc(NC(=O)c4ccccc4)cc3Cl)cn2)CC1`, for which, in experiment [1], the IC50 worked out at 0.296 µM.
Take `CC1(N)CCN(c2cnc(Sc3cccc(NC(=O)c4cccnc4O)c3Cl)cn2)CC1`: in experiment [1], the IC50 was 0.0113 µM.
Regarding `CC1(N)CCN(c2cnc(Sc3cccc(NC(=O)c4nccs4)c3Cl)cn2)CC1`, the IC50 in experiment [1] turned out to be 0.0519 µM.
On to `CC1(N)CCN(c2cnc(Sc3cccc(NC(=O)c4ccncc4Cl)c3Cl)cn2)CC1`, for which the IC50 in experiment [1] was 0.147 µM.
In the case of `CC1(N)CCN(c2cnc(Sc3cccc(NC(=O)c4cnccc4O)c3Cl)cn2)CC1`, the IC50 in experiment [1] came to 0.0064 µM.
Same read-out and setting: the value for `CC1(N)CCN(c2cnc(Sc3cccc(NC(=O)c4ncccc4O)c3Cl)cn2)CC1` was 0.0066 µM; that for `CC1(N)CCN(c2cnc(Sc3cccc(NC(=O)c4cc(Cl)ccn4)c3Cl)cn2)CC1` was 0.219 µM.
For the compound `N[C@@H]1c2ccccc2CC12CCN(c1cnc(Sc3cccc(NC(=O)c4cccnc4O)c3Cl)cn1)CC2`, in experiment [1], the IC50 stood at 0.00187 µM.
Take `Nc1nc(N2CCN(C(=O)C3(N)CCC3)CC2)cnc1Sc1ccnc(N)c1Cl`: the inhibition in experiment [2] came out at 44.2%.
For `CC1(N)CCN(c2cnc(Sc3cccc(NC(=O)c4ncccc4Cl)c3Cl)cn2)CC1`, the IC50 in experiment [1] amounted to 0.0017 µM.
As to `Nc1nc(N2CCN(C(=O)[C@H]3CCCN3)CC2)cnc1Sc1ccnc(N)c1Cl`, in experiment [2], the inhibition was 50.2%.
As for `CC1(N)CCN(c2cnc(Sc3cccc(NC(=O)c4cccnc4Cl)c3Cl)cn2)CC1`, the half-inhibitory concentration (IC50) in experiment [1] was determined as 0.365 µM.
As to `CC1(N)CCN(c2cnc(Sc3cccc(NC(=O)/C=C/c4ccccc4)c3Cl)cn2)CC1`, the IC50 in experiment [1] is 0.0396 µM.
Regarding `CC1(N)CCN(c2cnc(Sc3cccc(NC(=O)c4ccco4)c3Cl)cn2)CC1`, the IC50 in experiment [1] turned out to be 0.113 µM.
Regarding `Nc1nc(N2CCN(C(=O)C3(N)CCCCC3)CC2)cnc1Sc1ccnc(N)c1Cl`, the inhibition in experiment [2] was found to be 14.3%.
Consider `CC1(N)CCN(c2cnc(Sc3cccc(N)c3Cl)cn2)CC1`, for which, in experiment [1], the IC50 turned out to be 0.0362 µM.
Take `CC1(N)CCN(c2cnc(Sc3cccc(NC(=O)c4ccccc4)c3Cl)cn2)CC1`: in experiment [1], the IC50 came out at 0.0678 µM.
On to `CC1(N)CCN(c2cnc(Sc3cccc(NC(=O)c4cccc(Cl)n4)c3Cl)cn2)CC1`, for which, in experiment [1], the IC50 was 0.175 µM.
With `NCC(=O)N1CCN(c2cnc(Sc3ccnc(N)c3Cl)c(N)n2)CC1`, in experiment [2], the inhibition was determined as 58.8%.
With `CC1(N)CCN(c2cnc(Sc3cccc(NC(=O)c4ncccc4Br)c3Cl)cn2)CC1`, the IC50 in experiment [1] is 0.0528 µM.
`C[C@@H]1OCC2(CCN(c3cnc(Sc4cccc(NC(=O)c5ncccc5O)c4Cl)cn3)CC2)[C@@H]1N`: the IC50 in experiment [1] is 0.00059 µM.
Turning to `CC1(N)CCN(c2cnc(Sc3cccc(NC(=O)c4ccccn4)c3Cl)cn2)CC1`, the IC50 in experiment [1] is 0.0294 µM.
For `CC1(N)CCN(c2cnc(Sc3cccc(NC(=O)Cc4ccccc4)c3Cl)cn2)CC1`, the IC50 in experiment [1] turned out to be 0.0498 µM.
As for `C[C@@H](N)C(=O)N1CCN(c2cnc(Sc3ccnc(N)c3Cl)c(N)n2)CC1`, in experiment [2], the inhibition was found to be 43.8%.
For `CC1(N)CCN(c2cnc(Sc3cccc(NC(=O)c4ncccc4C(F)(F)F)c3Cl)cn2)CC1`, the IC50 in experiment [1] was determined as 0.0886 µM.
On to `N[C@@H]1c2ccccc2CC12CCN(c1cnc(Sc3cccc(NC(=O)c4ncccc4Cl)c3Cl)cn1)CC2`, for which, in experiment [1], the IC50 turned out to be 0.00108 µM.
Regarding `C[C@@H]1OCC2(CCN(c3cnc(Sc4cccc(NC(=O)c5ncccc5Cl)c4Cl)cn3)CC2)[C@@H]1N`, the IC50 in experiment [1] was determined as 0.00103 µM.
As for `C[C@H](N)C(=O)N1CCN(c2cnc(Sc3ccnc(N)c3Cl)c(N)n2)CC1`, the inhibition in experiment [2] amounted to 13.2%.
On the same count and under the same terms, the value for `Nc1nc(N2CCN(C(=O)[C@@H]3CCCN3)CC2)cnc1Sc1ccnc(N)c1Cl` was 48.8%.
Turning to `C[C@@H]1OCC2(CCN(c3cnc(Sc4cccc(NC(=O)c5cccnc5O)c4Cl)cn3)CC2)[C@@H]1N`, the IC50 in experiment [1] is 0.00013 µM; in experiment [3], 0.0455 µM.
